Experimental data taken from ChEMBL document CHEMBL1201862, “PubChem BioAssay data set” (2004).
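Protocol summary: plate cells (96-well), add compound at 5 concentrations, incubate 48 h, interpolate endpoints linearly. Here, GI50 denotes the concentration required for 50% inhibition of growth.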 Active and inactive are the calls of the source. Rule as the data show it: active = GI50 up to about 1.1 µM and inactive = higher.

Key:
Assay in all cases: NCI-60 cell line screen, 48 h
OVCAR-4 = tested on: OVCAR-4
SW-620 = tested on: SW-620
SK-MEL-28 = tested on: SK-MEL-28
UACC-62 = tested on: UACC-62
HT-29 = tested on: HT-29
HOP-92 = tested on: HOP-92
SK-OV-3 = tested on: SK-OV-3
COLO 205 = tested on: COLO 205
HCT-15 = tested on: HCT-15
LOX IMVI = tested on: LOX IMVI
HCC 2998 = tested on: HCC 2998
NCI-H226 = tested on: NCI-H226
SF-268 = tested on: SF-268
SK-MEL-2 = tested on: SK-MEL-2
SF-295 = tested on: SF-295
OVCAR-3 = tested on: OVCAR-3
NCI-H23 = tested on: NCI-H23
NCI-H522 = tested on: NCI-H522
786-0 = tested on: 786-0
HL-60 = tested on: HL-60

Measured: GI50

O=c1oc2ccccc2cc1-c1ccc([N+](=O)[O-])cc1
> 100 µM: HCT-15
inactive: OVCAR-4 > 100 µM | SW-620 25.8 µM | SK-MEL-28 > 100 µM | UACC-62 89.5 µM | HT-29 > 100 µM | HOP-92 > 100 µM | SK-OV-3 65.3 µM | COLO 205 > 100 µM | LOX IMVI > 100 µM | HCC 2998 > 100 µM | NCI-H226 > 100 µM | SF-268 24.8 µM | SK-MEL-2 > 100 µM | SF-295 83.6 µM | OVCAR-3 > 100 µM | NCI-H23 > 100 µM | NCI-H522 56.1 µM | 786-0 9.29 µM | HL-60 > 100 µM

CO/N=C\c1cc(O)c(O)c(/C=N/OC)c1
inactive: OVCAR-4 24.9 µM | SW-620 36.6 µM | SK-MEL-28 > 100 µM | UACC-62 38.8 µM | HT-29 40.5 µM | HOP-92 61.1 µM | SK-OV-3 29.1 µM | COLO 205 37.9 µM | LOX IMVI 41.3 µM | HCC 2998 32.8 µM | NCI-H226 30.3 µM | SF-268 10.9 µM | SK-MEL-2 > 100 µM | SF-295 48 µM | OVCAR-3 4.82 µM | NCI-H23 26.9 µM | NCI-H522 14.1 µM | HL-60 3.48 µM
33.3 µM: HCT-15

Nc1ccn(C2OC(CO)C(O)C2O)c(=O)n1 (stereo not drawn)
active: UACC-62 1.08 µM | LOX IMVI 0.219 µM | NCI-H23 0.248 µM | 786-0 0.514 µM | HL-60 0.203 µM
inactive: OVCAR-4 457 µM | SW-620 31.4 µM | SK-MEL-28 68.2 µM | HT-29 112 µM | HOP-92 9.55 µM | SK-OV-3 198 µM | COLO 205 139 µM | HCC 2998 107 µM | NCI-H226 239 µM | SF-268 3.15 µM | SK-MEL-2 457 µM | SF-295 12.8 µM | OVCAR-3 429 µM | NCI-H522 22.6 µM
73.5 µM: HCT-15

Cc1cc(N(CCC#N)CCC#N)ccc1/C=C1/N=C(c2ccccc2)N(N)C1=O
> 100 µM: HCT-15
inactive: OVCAR-4 34.8 µM | SW-620 85.5 µM | SK-MEL-28 > 100 µM | UACC-62 99.8 µM | HT-29 > 100 µM | HOP-92 30 µM | SK-OV-3 > 100 µM | COLO 205 > 100 µM | LOX IMVI 49.3 µM | HCC 2998 > 100 µM | NCI-H226 > 100 µM | SF-268 60.1 µM | SK-MEL-2 > 100 µM | SF-295 46.1 µM | OVCAR-3 > 100 µM | NCI-H23 56.9 µM | NCI-H522 26 µM | 786-0 37.6 µM | HL-60 27 µM

N#CC1(C#N)NC(c2ccccc2)C(C#N)(C#N)NC1c1ccccc1 (stereo not drawn)
> 100 µM: HCT-15
inactive: OVCAR-4 > 100 µM | SW-620 > 100 µM | SK-MEL-28 > 100 µM | UACC-62 > 100 µM | HT-29 > 100 µM | HOP-92 86.7 µM | SK-OV-3 > 100 µM | COLO 205 > 100 µM | LOX IMVI > 100 µM | HCC 2998 > 100 µM | NCI-H226 > 100 µM | SF-268 > 100 µM | SK-MEL-2 > 100 µM | SF-295 > 100 µM | OVCAR-3 > 100 µM | NCI-H23 > 100 µM | NCI-H522 27.4 µM | 786-0 > 100 µM | HL-60 41.1 µM

CC(=O)OCc1cc(=O)n(C)c2c3c4c(cc12)c(C)cc(=O)n4CO3
1.95 µM: HCT-15
active: SW-620 0.489 µM | SF-268 0.782 µM | NCI-H522 0.711 µM
inactive: OVCAR-4 1.42 µM | SK-MEL-28 1.64 µM | UACC-62 1.34 µM | HT-29 1.49 µM | HOP-92 1.95 µM | SK-OV-3 3.56 µM | COLO 205 1.23 µM | LOX IMVI 1.26 µM | HCC 2998 1.52 µM | NCI-H226 1.58 µM | SK-MEL-2 1.75 µM | SF-295 1.57 µM | OVCAR-3 1.45 µM | NCI-H23 1.68 µM | HL-60 1.4 µM

CCOP(=O)(OCC)C(NC(=O)OCC(Cl)(Cl)Cl)n1nnc(C(=O)OC)c1C(=O)OC (stereo not drawn)
inactive: OVCAR-4 > 100 µM | SW-620 > 100 µM | SK-MEL-28 > 100 µM | UACC-62 > 100 µM | HT-29 > 100 µM | HOP-92 > 100 µM | SK-OV-3 > 100 µM | COLO 205 > 100 µM | LOX IMVI > 100 µM | HCC 2998 > 100 µM | NCI-H226 > 100 µM | SF-268 > 100 µM | SK-MEL-2 > 100 µM | SF-295 > 100 µM | OVCAR-3 > 100 µM | NCI-H23 > 100 µM | NCI-H522 > 100 µM | 786-0 > 100 µM | HL-60 > 100 µM
> 100 µM: HCT-15
